Structures can show the parent of a compound that is named as a salt.
molecular target: T1, HCV polymerase (Hepatitis C virus genotype 1b, UniProt P26663); experiment: biochemical; design: species or system HCV BK strain
T1 construct: a region encoding NS5B (J Virol 1991 March, 65(3), 1105-13, 544 amino acids after deletion of 47 amino acids on the C-terminal); 6xHis (C); made in house; host or cells: Escherichia coli
Method in brief: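 His-tagged NS5B (BK strain, 47-aa C-terminal deletion, E. coli-expressed) at 0.5 μg/ml copied 5 μg/ml run-off RNA bearing the HCV 3′ UTR with 2 μM UTP plus [3H]UTP, 50 μM ATP/GTP, in pH 7.5 Tris with 5 mM MgCl2, 25 °C, 90 min. TCA-precipitated RNA was counted and IC50 calculated.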

T1 sequence (P26663 2420-2963): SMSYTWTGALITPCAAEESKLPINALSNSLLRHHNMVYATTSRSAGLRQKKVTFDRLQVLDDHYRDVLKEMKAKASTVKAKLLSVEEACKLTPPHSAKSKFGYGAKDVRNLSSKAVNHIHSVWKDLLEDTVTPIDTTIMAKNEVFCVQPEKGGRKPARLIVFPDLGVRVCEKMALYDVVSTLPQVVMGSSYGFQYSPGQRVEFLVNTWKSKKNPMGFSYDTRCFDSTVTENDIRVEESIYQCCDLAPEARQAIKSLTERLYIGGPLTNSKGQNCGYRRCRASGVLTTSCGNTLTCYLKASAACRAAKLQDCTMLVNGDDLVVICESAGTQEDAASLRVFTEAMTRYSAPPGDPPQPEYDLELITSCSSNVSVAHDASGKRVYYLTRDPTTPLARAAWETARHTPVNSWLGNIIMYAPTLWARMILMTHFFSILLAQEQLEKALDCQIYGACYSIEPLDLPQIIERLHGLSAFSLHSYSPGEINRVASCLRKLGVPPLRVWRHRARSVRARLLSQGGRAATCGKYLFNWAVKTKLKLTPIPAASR

Structure (SMILES) | IC50
O=C(CN1CCOCC1)Nc1ccc(N2CCOCC2)c(COc2ccc3c(c2)OCCn2c-3c(C3CCCCC3)c3ccc(C(=O)O)cc32)c1 [Example 2-21, 12-cyclohexyl-3-{2-(morpholin-4-yl)-5-[2-(morpholin-4-yl)acetylamino]benzyloxy}-6,7-dihydro-5-oxa-7a-azadibenzo[a,e]azulene-9-carboxylic acid dihydrochloride] | < 100 nM
CN(C(=O)CN1CCOCC1)c1ccc(N2CCOCC2)c(COc2ccc3c(c2)OCCn2c-3c(C3CCCCC3)c3ccc(C(=O)O)cc32)c1 [Example 2-22, 12-cyclohexyl-3-[5-{N-methyl-N-[2-(morpholin-4-yl)acetyl]amino}-2-(morpholin-4-yl)benzyloxy]-6,7-dihydro-5-oxa-7a-azadibenzo[a,e]azulene-9-carboxylic acid dihydrochloride] | < 100 nM
CN(C)CC(=O)N(C)c1ccc(N2CCOCC2)c(COc2ccc3c(c2)OCCn2c-3c(C3CCCCC3)c3ccc(C(=O)O)cc32)c1 [Example 2-23, 12-cyclohexyl-3-(5-[N-(2-dimethylaminoacetyl)-N-methylamino]-2-(morpholin-4-yl)benzyloxy]-6,7-dihydro-5-oxa-7a-azadibenzo[a,e]azulene-9-carboxylic acid dihydrochloride] | < 100 nM
COC(=O)N1CCCC(Oc2ccc3c(c2)OCCn2c-3c(C3CCCCC3)c3ccc(C(=O)O)cc32)C1 (centres unmarked) [Example 2-24, 12-cyclohexyl-3-(1-methoxycarbonylpiperidin-3-yloxy)-6,7-dihydro-5-oxa-7a-azadibenzo[a,e]azulene-9-carboxylic acid] | < 100 nM
COc1ccc(Oc2ccc3c(c2)OCCn2c-3c(C3CCCCC3)c3ccc(C(=O)O)cc32)cc1 [Example 2-25, 12-cyclohexyl-3-(4-methoxyphenoxy)-6,7-dihydro-5-oxa-7a-azadibenzo[a,e]azulene-9-carboxylic acid] | < 100 nM
O=C(O)c1ccc2c(C3CCCCC3)c3n(c2c1)CCOc1cc(Oc2cccc(Cl)c2)ccc1-3 [Example 2-26, 3-(3-chlorophenoxy)-12-cyclohexyl-6,7-dihydro-5-oxa-7a-azadibenzo[a,e]azulene-9-carboxylic acid] | < 100 nM
CN(C)C(=O)CN1CCN(c2ccc(N3CCCC3=O)cc2COc2ccc3c(c2)OCCn2c-3c(C3CCCCC3)c3ccc(C(=O)O)cc32)CC1 [Example 2-27, 12-cyclohexyl-3-[2-(4-dimethylcarbamoylmethylpiperazin-1-yl)-5-(2-oxopyrrolidin-1-yl)benzyloxy]-6,7-dihydro-5-oxa-7a-azadibenzo[a,e]azulene-9-carboxylic acid dihydrochloride] | < 100 nM
CCN1CCN(c2ccc(N3CCCC3=O)cc2COc2ccc3c(c2)OCCn2c-3c(C3CCCCC3)c3ccc(C(=O)O)cc32)CC1 [Example 2-28, 12-cyclohexyl-3-[2-(4-ethylpiperazin-1-yl)-5-(2-oxopyrrolidin-1-yl)benzyloxy]-6,7-dihydro-5-oxa-7a-azadibenzo[a,e]azulene-9-carboxylic acid dihydrochloride] | < 100 nM
O=C(O)c1ccc2c(C3CCCCC3)c3n(c2c1)CCOc1cc(Oc2cccnc2)ccc1-3 [Example 2-29, 12-cyclohexyl-3-(pyridin-3-yloxy)-6,7-dihydro-5-oxa-7a-azadibenzo[a,e]azulene-9-carboxylic acid monohydrochloride] | < 100 nM
O=C(O)c1ccc2c(C3CCCCC3)c3n(c2c1)CCOc1cc(Oc2ccccc2Cl)ccc1-3 [Example 2-30, 3-(2-chlorophenoxy)-12-cyclohexyl-6,7-dihydro-5-oxa-7a-azadibenzo[a,e]azulene-9-carboxylic acid] | < 100 nM
O=C(O)c1ccc2c(C3CCCCC3)c3n(c2c1)CCOc1cc(Oc2ccc(Cl)cc2)ccc1-3 [Example 2-31, 3-(4-chlorophenoxy)-12-cyclohexyl-6,7-dihydro-5-oxa-7a-azadibenzo[a,e]azulene-9-carboxylic acid] | < 100 nM
Cc1cc(COc2ccc3c(c2)OCCn2c-3c(C3CCCCC3)c3ccc(C(=O)O)cc32)no1 [Example 2-32, 12-cyclohexyl-3-(5-methylisoxazol-3-ylmethoxy)-6,7-dihydro-5-oxa-7a-azadibenzo[a,e]azulene-9-carboxylic acid] | < 100 nM
CC(C)(C)OC(=O)NCCOc1ccc2c(c1)OCCn1c-2c(C2CCCCC2)c2ccc(C(=O)O)cc21 [Example 2-33, 3-[2-(tert-butoxycarbonylamino)ethoxy]-12-cyclohexyl-6,7-dihydro-5-oxa-7a-azadibenzo[a,e]azulene-9-carboxylic acid] | < 100 nM
Cc1nc(COc2ccc3c(c2)OCCn2c-3c(C3CCCCC3)c3ccc(C(=O)O)cc32)cs1 [Example 2-34, 12-cyclohexyl-3-(2-methylthiazol-4-ylmethoxy)-6,7-dihydro-5-oxa-7a-azadibenzo[a,e]azulene-9-carboxylic acid] | < 100 nM
CC(C)(C)OC(=O)N1CCC[C@H]1COc1ccc2c(c1)OCCn1c-2c(C2CCCCC2)c2ccc(C(=O)O)cc21 [Example 2-35, 3-[(S)-1-(tert-butoxycarbonyl)pyrrolidin-2-ylmethoxy]-12-cyclohexyl-6,7-dihydro-5-oxa-7a-azadibenzo[a,e]azulene-9-carboxylic acid] | < 100 nM
COC(=O)NCCOc1ccc2c(c1)OCCn1c-2c(C2CCCCC2)c2ccc(C(=O)O)cc21 [Example 2-36, 12-cyclohexyl-3-[2-(methoxycarbonylamino)ethoxy]-6,7-dihydro-5-oxa-7a-azadibenzo[a,e]azulene-9-carboxylic acid] | < 100 nM
COC(=O)N1CCC[C@H]1COc1ccc2c(c1)OCCn1c-2c(C2CCCCC2)c2ccc(C(=O)O)cc21 [Example 2-37, 12-cyclohexyl-3-((S)-1-methoxycarbonylpyrrolidin-2-ylmethoxy)-6,7-dihydro-5-oxa-7a-azadibenzo[a,e]azulene-9-carboxylic acid] | < 100 nM
O=C(O)c1ccc2c(C3CCCCC3)c3n(c2c1)CCOc1cc(OCCN2CCOC2=O)ccc1-3 [Example 2-38, 12-cyclohexyl-3-[2-(2-oxooxazolidin-3-yl)ethoxy]-6,7-dihydro-5-oxa-7a-azadibenzo[a,e]azulene-9-carboxylic acid] | < 100 nM
O=C(O)c1ccc2c(C3CCCCC3)c3n(c2c1)CCOc1c(OCc2ccccc2)cccc1-3 [Example 2-39, 4-benzyloxy-12-cyclohexyl-6,7-dihydro-5-oxa-7a-azadibenzo[a,e]azulene-9-carboxylic acid] | < 100 nM
CC(C)(C)OC(=O)N1CC[C@H](Oc2ccc3c(c2)OCCn2c-3c(C3CCCCC3)c3ccc(C(=O)O)cc32)C1 [Example 2-40, 3-[(S)-1-(tert-butoxycarbonyl)pyrrolidin-3-yloxy]-12-cyclohexyl-6,7-dihydro-5-oxa-7a-azadibenzo[a,e]azulene-9-carboxylic acid] | < 100 nM
CC(C)(C)OC(=O)N[C@H](COc1ccc2c(c1)OCCn1c-2c(C2CCCCC2)c2ccc(C(=O)O)cc21)Cc1ccccc1 [Example 2-41, 3-((S)-2-tert-butoxycarbonylamino-3-phenylpropoxy)-12-cyclohexyl-6,7-dihydro-5-oxa-7a-azadibenzo[a,e]azulene-9-carboxylic acid] | < 100 nM
O=C(O)c1ccc2c(C3CCCCC3)c3n(c2c1)CCOc1cc(O[C@H]2CCNC2)ccc1-3 [Example 2-42, 12-cyclohexyl-3-((S)-pyrrolidin-3-yloxy)-6,7-dihydro-5-oxa-7a-azadibenzo[a,e]azulene-9-carboxylic acid monohydrochloride] | < 100 nM
CC(C)[C@@H](COc1ccc2c(c1)OCCn1c-2c(C2CCCCC2)c2ccc(C(=O)O)cc21)NC(=O)OC(C)(C)C [Example 2-43, 3-((S)-2-tert-butoxycarbonylamino-3-methylbutoxy)-12-cyclohexyl-6,7-dihydro-5-oxa-7a-azadibenzo[a,e]azulene-9-carboxylic acid] | < 100 nM
CS(=O)(=O)N1CCCC(Oc2ccc3c(c2)OCCn2c-3c(C3CCCCC3)c3ccc(C(=O)O)cc32)C1 (centres unmarked) [Example 2-44, 12-cyclohexyl-3-(1-methanesulfonylpiperidin-3-yloxy)-6,7-dihydro-5-oxa-7a-azadibenzo[a,e]azulene-9-carboxylic acid] | < 100 nM
CN1CCCCC1COc1ccc2c(c1)OCCn1c-2c(C2CCCCC2)c2ccc(C(=O)O)cc21 (centres unmarked) [Example 2-45, 12-cyclohexyl-3-(1-methylpiperidin-2-ylmethoxy)-6,7-dihydro-5-oxa-7a-azadibenzo[a,e]azulene-9-carboxylic acid] | < 100 nM
O=C(O)c1ccc2c(C3CCCCC3)c3n(c2c1)CCOc1cc(OC2CCCNC2)ccc1-3 (centres unmarked) [Example 2-46, 12-cyclohexyl-3-(piperidin-3-yloxy)-6,7-dihydro-5-oxa-7a-azadibenzo[a,e]azulene-9-carboxylic acid monohydrochloride] | < 100 nM
NC(=O)c1ccc2c(C3CCCCC3)c3n(c2c1)CCOc1cc(OCc2cc(N4CCCC4=O)ccc2N2CCOCC2)ccc1-3 [Example 2-47, 12-cyclohexyl-3-[2-(morpholin-4-yl)-5-(2-oxopyrrolidin-1-yl)benzyloxy]-6,7-dihydro-5-oxa-7a-azadibenzo[a,e]azulene-9-carboxamide monohydrochloride] | < 100 nM
CS(=O)(=O)c1ccc(N2CCOCC2)c(COc2ccc3c(c2)OCCn2c-3c(C3CCCCC3)c3ccc(C(N)=O)cc32)c1 [Example 2-48, 12-cyclohexyl-3-[5-methanesulfonyl-2-(morpholin-4-yl)benzyloxy]-6,7-dihydro-5-oxa-7a-azadibenzo[a,e]azulene-9-carboxamide monohydrochloride] | < 100 nM
COC(=O)N[C@H](COc1ccc2c(c1)OCCn1c-2c(C2CCCCC2)c2ccc(C(=O)O)cc21)Cc1ccccc1 [Example 2-49, 12-cyclohexyl-3-((S)-2-methoxycarbonylamino-3-phenylpropoxy)-6,7-dihydro-5-oxa-7a-azadibenzo[a,e]azulene-9-carboxylic acid] | < 100 nM
